The source of these data is patent US5821046A, “RNA oligonucleotides that bind HIV tat protein” (RiboTargets Holdings PLC, priority 1990, dated 1998).

Where two headings read alike, the source gives them in different places. [5BrU] = 5-bromo-2'-deoxyuridine; d = 2'-deoxy (DNA); r = 2'-OH (RNA)

In this data set the test system is tat protein. The data set is described as follows: competition filter binding assay with chemically synthesized RNA (Table 4). More on the design: species or system HIV-1. Particulars: for Krel (29 or 14 +17): relative to 14 +17 duplex; for IC50: 40 nM tat, read-out: D1/2; for competition for tat binding compared with unmodified RNA: competition filter binding, FIGS. 19, 21-24, 26; for drop in D1/2 compared with unmodified duplex: modified 17-mer + 14-mer duplex. As for the experimental part:
Competition binding reactions (0.5ml) in TK buffer (50 mM Tris.HCl(pH7.9 at 0.5M and 22° G), 20 mM KCl ) included 10nM ^32 p labeled 59-mer (ca. 20,000 cpm) , 40nM tat protein, 5 ug/ml calf thymus DNA, 2 ug/ml yeast tRNA, 40 units of RNAsin (Promega) and varying concentrations (0-300 nM) of unlabeled competitor RNA (59-mer [SEQ ID NO: 1; ], 29-mer [SEQ ID NO: 12] or preannealed (slow cooled from 90° C.) 14-mer [SEQ ID NO: 14; nucleotides 2-15] and 17-mer [SEQ ID NO: 13; nucleotides 1- 17]). Binding was allowed to take place for 2-15 minutes on ice and each reaction was filtered through a twice prewashed (0.6 ml of ice-cold TK buffer) Millipore GS filter (2.5 cm disks, 0.22 um pore) and the filter washed with TK buffer (0.6 ml). Dried filters were counted by liquid scintillation. Results were plotted on a graph (FIG. 19) showing counts retained on the filter versus the concentration of competitor RNA added.
Competition binding reactions (0.5 ml) in TK buffer included 10 nM duplex formed from ^32 P-labeled and unlabeled 29-mer (ca. 20,000 cpm) or 10 nM duplex formed from ^32 P-labeled and unlabeled 17-mer annealed to unlabeled 14-mer, 40 nM tat protein, 5 ug/ml calf thymus DNA, 2 ug/ml yeast tRNA and varying concentrations (0-120 nM) of unlabeled competitor RNA (29-mer or modified 29-mer (FIG. 21), or 17-mer +14-mer duplex or modified 7-mer +14-mer duplex (22, 23 and 24) and were carried out as described above.
Competition binding reactions (0-5 ml) in TK buffer included 10 nM duplex formed from ^32 P-labelled (ca. 20,000 cpm) and unlabelled 18-mer [SEQ ID NO: 13] annealed to unlabelled 15-mer [SEQ ID NO: 14], 40 nM tat protein, 5 ug/ml calf thymus DNA, 2 ug/ml yeast TRNA and varying concentrations (0-120 nM) of unlabelled competitor RNA (59-mer [SEQ ID NO: 1] or 18-mer [SEQ ID NO: 13]+15-mer [SEQ ID NO: 14] duplex, or modified 18-mer [SEQ ID NO: […]

Setting [1] is: BrdU series, 32P-end-labelled 29-mer 10 nM, competitor 0-120 nM.
The mark [2] stands for this setting: 32P-end-labeled 17-mer annealed to 14-mer 10 nM, competitor 0-120 nM (dT series).
Where [3] appears, read: 32P-end-labeled 17-mer annealed to 14-mer.
Where [4] appears, read: 32P-end labelled 18-mer annealed to 15-mer.

Regarding “BrdU-25: 14-mer annealed to 17-mer where U25 is replaced by 5-bromo-2'-deoxyuridine (AGCCAGAUUUGAGCAGC; sugars from the 5' end r9 d1 r7, [5BrU] at 10, backbone not given here; annealed to 14-mer strand)”, the “competition for tat binding compared with unmodified RNA” value is recorded as “no effect on competition”. The “Krel (29 or 14 +17)” value (BrdU series) is reported as 1.1. Under setting [1], the IC50 came to 35 nM. Besides, the “competition for tat binding compared with unmodified RNA” value (listed as SEQ ID NO: 22) is reported as “competes for tat binding as well compared to unsubstituted duplex”.

In the case of “BrdU-23: 14-mer annealed to 17-mer where U23 is replaced by 5-bromo-2'-deoxyuridine (AGCCAGAUUUGAGCAGC; DNA at 8, [5BrU] at 8, other sugars and backbone not given here; annealed to a 14-mer strand, further chemistry not fully specified)”, the “competition for tat binding compared with unmodified RNA” value is “competes for tat binding less well” and the “drop in D1/2 compared with unmodified duplex” value is 2 fold. For the same substance, under “BrdU series”, the “Krel (29 or 14 +17)” value was 0.6. Moreover, the IC50 under setting [1] was 70 nM.

With “BrdU-24: 14-mer annealed to 17-mer where U24 is replaced by 5-bromo-2'-deoxyuridine (AGCCAGAUUUGAGCAGC; DNA at 9, [5BrU] at 9, other sugars and backbone not given here; annealed to a 14-mer strand, further chemistry not fully specified)”, the “competition for tat binding compared with unmodified RNA” value was “no effect on competition”. The “Krel (29 or 14 +17)” value (BrdU series) amounted to 1.0. Also, the IC50 under setting [1] is 45 nM. The “competition for tat binding compared with unmodified RNA” value (listed as SEQ ID NO: 21) was “competes as well compared to unsubstituted duplex”.

“dT-23: 14-mer annealed to 17-mer where U23 is replaced by 2'-deoxythymidine (AGCCAGANUUGAGCAGC; 2'-deoxythymidine at 23, annealed 14-mer without entry, chemistry not fully specified)”: the “competition for tat binding compared with unmodified RNA” value is “no effect on competition”. Besides, the IC50 under setting [2] stood at 35 nM. For the same substance, the “competition for tat binding compared with unmodified RNA” value (listed as SEQ ID NO: 17) is on record as “competes for tat binding as well as unmodified duplex”. Moreover, the “Krel (29 or 14 +17)” value under setting [3] came out at 1.1.

“dT-24: 14-mer annealed to 17-mer where U24 is replaced by 2'-deoxythymidine (AGCCAGAUNUGAGCAGC; 2'-deoxythymidine at 24, annealed 14-mer without entry, chemistry not fully specified)”: the “competition for tat binding compared with unmodified RNA” value was “no effect on competition”. The IC50 under setting [2] came out at 30 nM. For the same substance, where the note is “listed as SEQ ID NO: 18”, the “competition for tat binding compared with unmodified RNA” value is recorded as “competes for tat binding as well as unmodified duplex”. Further, the “Krel (29 or 14 +17)” value under setting [3] was 1.2.

Turning to “15 +18: duplex of unmodified 18-mer [SEQ ID NO: 13] and 15-mer [SEQ ID NO: 14] containing a U-rich bulge (chain 1 AGCCAGAUUUGAGCAGCU; chain 2 AGCUGCUCUCUGGCU; RNA, phosphodiester; duplex with U-rich bulge)”, the “competition for tat binding compared with unmodified RNA” value is “competed as well as 17-mer”. In addition, under setting [4], the “Krel (59-mer)” value was 0.3 and the “Krel (29 or 14 +17)” value is reported as 0.8. For the setting “32P-end labelled 18-mer annealed to 15-mer 10 nM, competitor 0-120 nM”, the IC50 was 65 nM.

Take “dT-25: 14-mer annealed to 17-mer where U25 is replaced by 2'-deoxythymidine (AGCCAGAUUNGAGCAGC; 2'-deoxythymidine at 25, annealed 14-mer without entry, chemistry not fully specified)”: the “competition for tat binding compared with unmodified RNA” value is listed as “competes less well compared to unmodified duplex” and the “drop in D1/2 compared with unmodified duplex” value is given as 2-3 fold. Under setting [2], the IC50 stood at 90 nM. Further, the “Krel (29 or 14 +17)” value under setting [3] is 0.4.
